In assay [1] the test system is porcine pancreatic phospolipase A2. As to conditions: Ripka et al., Journal of Cellular Biochemistry, 40, 279-286 (1989); cited from earlier work.
The target of assay [2] is PLA2 from Crotalus adamanteus (Crotalus adamanteus, UniProt P00623). Nature of the assay: biochemical. Details: species or system Crotalus adamanteus (snake venom).
Assay [3] is described as follows: Carrageenan Paw Edema Assay. As to conditions: 50 mg/kg, intraperitoneal, paw volume at three hours; n = 3. Format: in vivo, rat (male Sprague-Dawley). (In general: The carrageenan paw model is a standard test of acute inflammation.)
Protocol: The test procedure is as follows: male Caesarian-derived Sprague-Dawley rates from Charles River Laboratories are maintained on rat chow and water ad libidum and on a 12 hour light/12 hour dark cycle until they weight 160-210 grams.
One drop of Tween 80 per 10 ml of methylcellulose and 4 mm glass beads are added to each suspension. Each compound is bead-milled for one hour prior to use.
Dosing is intraperitioneal.
After dosing, all animals are given tap water so that the total volumes of fluid administered to each rat orally is 5.0 ml. This achieves uniform hydration of the rats and thus minimizes variability of the edematous response in the paw.
Sigma Type IV lambda carrageenan (Sigma Chemical Company, St. Louis, Mo., #C3889) is suspended in 0.9% sterile saline usually as a 1% solution (100 mg/10 ml). This preparation is bead-milled one hour prior to use. […]
Immediately following injection initial paw volume readings are taken, and then again three hours later using a Ugo Basile volume plethysmometer. The differences between the initial reading and the three hour reading is then calculated. Means; S.E.M. of these difference are determined for each group. The percent decrease from the control volumes are calculated using the following formula: [formula] Data are evaluated using the Student's t-test and p 0.05 is considered significant.

Sequence of PLA2 from Crotalus adamanteus (P00623 17-138 limits assumed): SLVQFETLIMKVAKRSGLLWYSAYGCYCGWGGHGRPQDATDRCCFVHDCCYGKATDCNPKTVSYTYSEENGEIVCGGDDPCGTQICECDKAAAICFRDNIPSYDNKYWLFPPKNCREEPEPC

Turning to `Oc1cccc(CC2CCc3ccccc32)c1` (stereo not drawn), the “inhibitory activity against porcine pancreatic phospolipase A2” value in assay [1] is on record as “claimed to possess inhibitory activity”.
Usually IC50 stands for the concentration needed to halve the response being measured. A lower IC50 goes with higher potency. As for `O=CCc1cccc(CC2CCc3ccccc32)c1` (stereo not drawn) [Ex. 12, 3-(2',3'-Dihydroinden-1'-ylmethyl)-phenylacetaldehyde], 2.4 µM corresponded to half-maximal inhibition in assay [2] (IC50). In addition, in assay [3], the “Carr. Paw Edemia Inhib. %” value is given as 51%.

(Values after US5290817A, “Substituted 1-benzylindanes and their use as inhibitors of phospholipase A2” (The Du Pont Merck Pharmaceutical Co., priority 1992, dated 1994).)
